Measurements taken from the NIST ThermoML archive (doi:10.1016/j.tca.2008.06.004).

Columns and labels:
[1] = 101.33 kPa, Liquid; for mass density: Pycnometric method; for speed of sound: Linear variable-path acoustic interferometer
[2] = xn = mol fraction of the nth substance listed; conditions: 101 kPa, Liquid; for excess molar volume: 298.15 K, Direct dilatometry; for speed of sound: 308.15 K, Linear variable-path acoustic interferometer
[3] = excess molar enthalpy (molar enthalpy of mixing); xn = mol fraction of the nth substance listed; conditions: 308.15 K, 101 kPa, Liquid, Calvet calorimetry

Cc1ccccc1N [2-methylaniline]
[1]
Conditions	mass density [kg/m3]	speed of sound [m/s]
298.15 K	994.28	–
308.15 K	–	1603

Cc1ccccc1N [2-methylaniline] + C1CCCCC1
Conditions	excess molar enthalpy [kJ/mol]	excess molar volume [m3/mol]	speed of sound [m/s]
[2], x1 = 0.0663	–	–	1215
[2], x1 = 0.0768	–	2.41e-07	–
[2], x1 = 0.1293	–	–	1221
[2], x1 = 0.1415	–	3.87e-07	–
[2], x1 = 0.1758	–	–	1228
[2], x1 = 0.1925	–	4.7e-07	–
[2], x1 = 0.2355	–	–	1239
[2], x1 = 0.2442	–	5.29e-07	–
[2], x1 = 0.2901	–	5.62e-07	–
[2], x1 = 0.2902	–	–	1252
[2], x1 = 0.3335	–	–	1264
[2], x1 = 0.3415	–	5.81e-07	–
[2], x1 = 0.393	–	–	1282
[2], x1 = 0.3981	–	5.82e-07	–
[2], x1 = 0.4506	–	5.68e-07	–
[2], x1 = 0.4881	–	–	1315
[2], x1 = 0.5225	–	5.29e-07	–
[2], x1 = 0.556	–	–	1342
[2], x1 = 0.6103	–	4.57e-07	–
[2], x1 = 0.6453	–	–	1382
[2], x1 = 0.6875	–	3.79e-07	–
[2], x1 = 0.7117	–	–	1415
[2], x1 = 0.7513	–	3.07e-07	–
[2], x1 = 0.7986	–	–	1462
[2], x1 = 0.8224	–	2.22e-07	–
[2], x1 = 0.8479	–	–	1493
[2], x1 = 0.9026	–	–	1528
[2], x1 = 0.9119	–	1.11e-07	–
[3], x1 = 0.0527	0.266	–	–
[3], x1 = 0.1017	0.506	–	–
[3], x1 = 0.1628	0.789	–	–
[3], x1 = 0.2349	1.09	–	–
[3], x1 = 0.2681	1.31	–	–
[3], x1 = 0.3614	1.48	–	–
[3], x1 = 0.4213	1.6	–	–
[3], x1 = 0.4907	1.67	–	–
[3], x1 = 0.5613	1.67	–	–
[3], x1 = 0.6121	1.62	–	–
[3], x1 = 0.6774	1.49	–	–
[3], x1 = 0.7643	1.23	–	–
[3], x1 = 0.8391	0.916	–	–
[3], x1 = 0.931	0.428	–	–

Cc1ccccc1N [2-methylaniline] + CCCCCC
Conditions	excess molar enthalpy [kJ/mol]	excess molar volume [m3/mol]	speed of sound [m/s]
[2], x1 = 0.0697	–	–	1056
[2], x1 = 0.0712	–	-4.8e-08	–
[2], x1 = 0.1172	–	–	1075
[2], x1 = 0.1767	–	-1.25e-07	–
[2], x1 = 0.1851	–	–	1105
[2], x1 = 0.2524	–	-1.84e-07	–
[2], x1 = 0.2657	–	–	1142
[2], x1 = 0.2933	–	-2.15e-07	–
[2], x1 = 0.3119	–	–	1165
[2], x1 = 0.3442	–	-2.52e-07	–
[2], x1 = 0.3707	–	–	1194
[2], x1 = 0.3801	–	-2.77e-07	–
[2], x1 = 0.4443	–	-3.15e-07	–
[2], x1 = 0.4478	–	–	1232
[2], x1 = 0.4903	–	-3.38e-07	–
[2], x1 = 0.5009	–	–	1259
[2], x1 = 0.5613	–	-3.63e-07	–
[2], x1 = 0.5787	–	–	1297
[2], x1 = 0.6363	–	-3.71e-07	–
[2], x1 = 0.6449	–	–	1329
[2], x1 = 0.6991	–	-3.61e-07	–
[2], x1 = 0.709	–	–	1359
[2], x1 = 0.7552	–	-3.36e-07	–
[2], x1 = 0.7673	–	–	1389
[2], x1 = 0.8345	–	-2.71e-07	–
[2], x1 = 0.8391	–	–	1433
[2], x1 = 0.9123	–	–	1501
[2], x1 = 0.9265	–	-1.46e-07	–
[3], x1 = 0.0678	0.161	–	–
[3], x1 = 0.1317	0.351	–	–
[3], x1 = 0.1927	0.553	–	–
[3], x1 = 0.2505	0.75	–	–
[3], x1 = 0.3314	1.01	–	–
[3], x1 = 0.4015	1.22	–	–
[3], x1 = 0.4718	1.37	–	–
[3], x1 = 0.5317	1.46	–	–
[3], x1 = 0.5997	1.5	–	–
[3], x1 = 0.6532	1.49	–	–
[3], x1 = 0.7013	1.43	–	–
[3], x1 = 0.7717	1.26	–	–
[3], x1 = 0.8439	0.985	–	–
[3], x1 = 0.9164	0.595	–	–

Cc1ccccc1N [2-methylaniline] + CCCCCCC
Conditions	excess molar enthalpy [kJ/mol]	excess molar volume [m3/mol]	speed of sound [m/s]
[2], x1 = 0.0707	–	–	1102
[2], x1 = 0.0814	–	-4.8e-08	–
[2], x1 = 0.1227	–	–	1115
[2], x1 = 0.1663	–	-1.02e-07	–
[2], x1 = 0.1758	–	–	1129
[2], x1 = 0.2224	–	-1.37e-07	–
[2], x1 = 0.2378	–	–	1148
[2], x1 = 0.2812	–	-1.71e-07	–
[2], x1 = 0.3079	–	–	1172
[2], x1 = 0.3388	–	-1.99e-07	–
[2], x1 = 0.3508	–	–	1187
[2], x1 = 0.3991	–	-2.23e-07	–
[2], x1 = 0.4047	–	–	1208
[2], x1 = 0.4554	–	-2.38e-07	–
[2], x1 = 0.4679	–	–	1233
[2], x1 = 0.5218	–	-2.47e-07	–
[2], x1 = 0.547	–	–	1266
[2], x1 = 0.5804	–	-2.45e-07	–
[2], x1 = 0.6131	–	–	1296
[2], x1 = 0.6446	–	-2.33e-07	–
[2], x1 = 0.6884	–	–	1334
[2], x1 = 0.7112	–	-2.1e-07	–
[2], x1 = 0.7597	–	–	1373
[2], x1 = 0.7819	–	-1.73e-07	–
[2], x1 = 0.8208	–	–	1413
[2], x1 = 0.8503	–	-1.27e-07	–
[2], x1 = 0.9224	–	–	1501
[2], x1 = 0.9383	–	-6.7e-08	–
[3], x1 = 0.0734	0.2	–	–
[3], x1 = 0.1457	0.365	–	–
[3], x1 = 0.1968	0.468	–	–
[3], x1 = 0.2678	0.602	–	–
[3], x1 = 0.3109	0.678	–	–
[3], x1 = 0.3874	0.808	–	–
[3], x1 = 0.4467	0.901	–	–
[3], x1 = 0.5019	0.979	–	–
[3], x1 = 0.5876	1.07	–	–
[3], x1 = 0.6513	1.1	–	–
[3], x1 = 0.7016	1.1	–	–
[3], x1 = 0.7767	1.02	–	–
[3], x1 = 0.8312	0.899	–	–
[3], x1 = 0.9267	0.504	–	–

C1CCCCC1 [cyclohexane]
[1], 298.15 K
Conditions	mass density [kg/m3]	speed of sound [m/s]
–	773.94	1255

CCCCCCC [heptane]
[1]
Conditions	mass density [kg/m3]	speed of sound [m/s]
298.15 K	679.49	–
308.15 K	–	1088

CCCCCC [hexane]
[1], 298.15 K
Conditions	mass density [kg/m3]	speed of sound [m/s]
–	654.82	1079
